Data: patent US5602174A, “Treatment” (Beecham Wuefling GmbH & Co., priority 1986, dated 1997)

Columns and labels:
coronary spasm = assay: Vasopressin test in anaesthetized rats (coronary spasm, ST-segment elevation in the ECG); assay type: in vivo, rat; settings: 0.6 g/kg i.d., vasopressin (Lysopressin 1 I.U./kg) i.v.
Method: Vasopressin (Lysopressin: 1 I.U./kg) was administered intravenously in order to provoke coronary spasm (ST-segment elevation in the ECG).
The ability of test compounds to reduce coronary spasm is taken as a measure of their anti-anginal potential in spasm-induced angina pectoris. (Ref. Drug. Res. 33(11), 8,1117-1121 (1983)).

[1] = Haemodynamic profile in anaesthetized rats; assay type: in vivo, rat; design: Dhr^20 (i.v. dose which reduces heart rate by ca. 20%) / Dhr^20 (dose which reduces heart rate by ca. 20%): unit not given here
Text: The effect of compounds of the invention on heart rate, systolic left ventricular pressure, left ventricular dp/dt max and mean arterial blood pressure was investigated so as to obtain information on the anti-anginal potential of these compounds, by reducing the oxygen demand of the ischaemic heart.
*Dhr^20 = i.v. dose which reduces heart rate by ca. 20%
**LVP = systolic left ventricular pressure
***BP = mean arterial blood pressure
^a = i.d. administration

[2] = i.v. at Dhr^20, anaesthetized rat

Row | Structure (SMILES) | active against coronary spasm (coronary spasm) | % effect of Dhr^20 on BP (mean arterial blood pressure) [1, 2] | % effect of Dhr^20 on LVP (systolic left ventricular pressure) [1, 2] | % effect of Dhr^20 on dp/dtmax (left ventricular dp/dt max) [1, 2] [%] | Dhr^20 (i.v. dose which reduces heart rate by ca. 20%) ([1]; i.v., anaesthetized rat) | i.v. duration of action on heart rate (rat) ([1]; i.v., anaesthetized rat) [min] | % effect of Dhr^20 on BP (mean arterial blood pressure) ([1]; rat, in vivo) [%] | Dhr^20 (dose which reduces heart rate by ca. 20%) ([1]; rat, in vivo) | duration of action on heart rate (rat) ([1]; rat, in vivo) [min] | % effect of Dhr^20 on BP (mean arterial blood pressure) ([1]; rat, in vivo, iv) [%] | % effect of Dhr^20 on LVP (systolic left ventricular pressure) ([1]; rat, in vivo, iv) [%] | Dhr^20 (i.v. dose which reduces heart rate by ca. 20%) ([1]; rat, in vivo, iv) | i.v. duration of action on heart rate (rat) ([1]; rat, in vivo, iv) [min]
1 | COc1ccc(CCN(C)CCCN(Cc2ccccc2[N+](=O)[O-])c2ccc(OC)c(OC)c2)cc1OC [Example E1] | active | 0% | -2% | -3 | 1.6 | 10 | – | – | – | – | – | – | –
2 | COc1ccc(CCN(C)CCCN(Cc2ccccc2)c2ccc(OC)c(OC)c2)cc1OC [Example E4, (N-[3,4-Dimethoxyphenyl]-N-3-[N'-2-(3,4-dimethoxyphenyl)-ethyl-N'-methylamino]-propyl)-benzylamine] | – | -6% | -3% | -12 | 3.2 | 10 | – | – | – | – | – | – | –
3 | COc1ccc(CCN(C)CCCN(Cc2ccc([N+](=O)[O-])cc2)c2ccc(OC)c(OC)c2)cc1OC [Example E6, (N-[3,4-Dimethoxyphenyl]-N-3-[N'-2-(3,4-dimethoxyphenyl)-ethyl-N'-methylamino]-propyl)-(4-nitro)-benzylamine] | – | +1% | +5% | -5 | 0.4 | 60 | – | – | – | – | – | – | –
4 | CCCCC(=O)N(CCCN(C)CCc1ccc(OC)c(OC)c1)c1ccc(OC)c(OC)c1 [Example E12, (N-[3,4-Dimethoxyphenyl]-N-3-[N'-2-(3,4-dimethoxyphenyl)-ethyl-N'-methylamino]-propyl)-pentanoic acid amide] | – | -11% | -6% | -6 | 1.6 | 10 | – | – | – | – | – | – | –
5 | COc1ccc(CCN(C)CCCN(C(=O)CCc2ccccc2)c2ccc(OC)c(OC)c2)cc1OC [Example E15, (N-[5,4-Dimethoxyphenyl]-N-3-[N'-2-(3,4-dimethoxyphenyl)-ethyl-N'-methylamino]-propyl)-(3-phenyl)propanoic acid amide] | – | -8% | -7% | -7 | 1.6 | 10 | – | – | – | – | – | – | –
6 | CCCCOC(=O)N(CCCN(C)CCc1ccc(OC)c(OC)c1)c1ccc(OC)c(OC)c1 [Example E24, (N-[3,4-Dimethoxyphenyl]-N-3-[N'-2-(3,4-dimethoxyphenyl)-ethyl-N'methylamino]-propyl)-n-butyl-urethane] | – | -15% | -13% | -8 | 3.2 | 10 | – | – | – | – | – | – | –
7 | COc1ccc(CCN(C)CCCN(C(=O)Oc2ccccc2)c2ccc(OC)c(OC)c2)cc1OC [Example E25, (N-[3,4-Dimethoxyphenyl]-N-3-[N'-2-(3,4-dimethoxyphenyl)-ethyl-N'-methylamino]-propyl)-phenyl-urethane] | – | -14% | -10% | -2 | 0.8 | 10 | – | – | – | – | – | – | –
8 | CCCNC(=O)N(CCCN(C)CCc1ccc(OC)c(OC)c1)c1ccc(OC)c(OC)c1 [Example E27, (N-[3,4-Dimethoxyphenyl]-N-3-[N'-2-(3,4-dimethoxyphenyl)-ethyl-N'-methylamino]-propyl)-N"-n-propyl-urea] | – | -4% | -2% | -1 | 6.4 | 5 to 10 | – | – | – | – | – | – | –
9 | COc1ccc(CCN(C)CCCN(C(=O)NCc2ccccc2)c2ccc(OC)c(OC)c2)cc1OC [Example E30, (N-[3,4-Dimethoxyphenyl]-N-3-[N'-2-(3,4-dimethoxyphenyl)-ethyl-N'-methylamino]-propyl)-N"-benzylurea] | – | -15% | -10% | -20 | 1.6 | 10 | – | – | – | – | – | – | –
10 | COc1ccc(CCN(C)CCN(C(=O)NC(C)c2ccccc2)c2ccc(OC)c(OC)c2)cc1OC (centres unmarked) [Example E32] | – | -13% | -7% | -3 | 3.2 | 10 | – | – | – | – | – | – | –
11 | CCCCCN(CCCN(C)CCc1ccc(OC)c(OC)c1)c1ccc(OC)c(OC)c1 [Example E34, (N-[3,4-Dimethoxyphenyl]-N-3-[N'-2-(3,4-dimethoxyphenyl)-ethyl-N'-methylamino]-propyl)-n-pentylamine] | – | -9% | -9% | -10 | 1.6 | 5 to 10 | – | – | – | – | – | – | –
12 | COc1ccc(CCN(C)CCCN(c2ccc(OC)c(OC)c2)c2ncc([N+](=O)[O-])cc2[N+](=O)[O-])cc1OC [Example E44] | – | -10% | -6% | -8 | 3.2 | 10 | – | – | – | – | – | – | –
13 | COc1ccc(CCN(C)CCCN(C(=O)c2ccc([N+](=O)[O-])cc2)c2ccc(OC)c(OC)c2)cc1OC [Example E50, (N-[3,4-Dimethoxyphenyl]-N-3-[N'-2-(3,4-dimethoxyphenyl)-ethyl-N'-methyl-amino]-propyl)-4-nitrobenzamide] | – | – | – | – | – | – | -6 | 16 | > 90 | -1 | -1 | 1.6 | 10
